Like-named read-outs stand apart in the source and are kept apart here.
Tests used:
[1] = molecular target: WT EZH2 (EZH2 4 protein complex: EZH2, EED, SUZ12, RbAp48) (Homo sapiens, UniProt O75530+Q09028+Q15022+Q15910); test: WT EZH2 nucleosome assay; type: biochemical
Method in brief: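 Radiometric methyltransferase assay: 5 nM EZH2 four-protein complex, 1.5 μM 3H-SAM, 25 μg/mL HeLa oligonucleosomes, 50 nM recombinant H1 in 100 mM Tris pH 8.5, 4 mM DTT, 0.01% Tween-20. 60 min reaction, TCA quench, filter capture, scintillation counting; IC50 from 11-point 4-parameter fit; % effect at 20 μM.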

[2] = molecular target: EZH2PRC2 mutant Y641N (Homo sapiens, UniProt Q15910, Y641N); test: EZH2PRC2 mutant Y641N nucleosome assay; type: biochemical; conditions: read-out: EZH2PCR2 Mutant Y641N IC50
Sequence of EZH2PRC2 mutant Y641N (Q15910 whole entry Y641N): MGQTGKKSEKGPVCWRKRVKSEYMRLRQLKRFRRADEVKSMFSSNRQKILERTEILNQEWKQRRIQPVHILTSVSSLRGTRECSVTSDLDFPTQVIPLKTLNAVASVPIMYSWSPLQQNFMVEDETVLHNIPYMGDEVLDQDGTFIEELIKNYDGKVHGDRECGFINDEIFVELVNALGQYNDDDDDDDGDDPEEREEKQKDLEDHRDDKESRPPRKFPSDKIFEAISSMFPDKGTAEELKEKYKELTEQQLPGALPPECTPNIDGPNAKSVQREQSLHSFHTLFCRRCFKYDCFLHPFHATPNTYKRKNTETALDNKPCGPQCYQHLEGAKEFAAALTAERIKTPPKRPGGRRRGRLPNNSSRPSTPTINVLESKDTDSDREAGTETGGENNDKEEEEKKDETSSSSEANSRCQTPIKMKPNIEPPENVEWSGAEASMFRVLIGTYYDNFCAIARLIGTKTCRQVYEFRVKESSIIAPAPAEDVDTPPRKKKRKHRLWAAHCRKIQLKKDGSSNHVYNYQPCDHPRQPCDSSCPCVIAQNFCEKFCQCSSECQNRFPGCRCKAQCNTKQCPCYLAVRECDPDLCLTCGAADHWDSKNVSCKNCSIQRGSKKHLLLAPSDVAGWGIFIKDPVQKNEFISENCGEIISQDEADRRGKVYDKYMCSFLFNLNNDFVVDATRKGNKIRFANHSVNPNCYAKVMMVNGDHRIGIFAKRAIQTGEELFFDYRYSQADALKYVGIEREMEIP
Sequence of EZH2PRC2 mutant Y641N (O75530 whole entry partner): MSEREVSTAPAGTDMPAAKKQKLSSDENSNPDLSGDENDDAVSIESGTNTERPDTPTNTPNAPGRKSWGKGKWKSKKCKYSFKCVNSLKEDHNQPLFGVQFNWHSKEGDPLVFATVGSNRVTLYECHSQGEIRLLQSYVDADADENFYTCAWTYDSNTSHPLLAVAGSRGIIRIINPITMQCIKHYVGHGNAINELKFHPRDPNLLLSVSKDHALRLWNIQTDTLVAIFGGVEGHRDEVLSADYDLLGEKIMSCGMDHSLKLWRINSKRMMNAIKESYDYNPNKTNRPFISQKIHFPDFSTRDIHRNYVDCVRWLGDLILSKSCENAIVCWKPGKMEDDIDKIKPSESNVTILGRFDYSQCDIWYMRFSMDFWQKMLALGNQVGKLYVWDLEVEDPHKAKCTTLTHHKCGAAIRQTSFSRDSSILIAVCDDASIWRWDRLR
Sequence of EZH2PRC2 mutant Y641N (Q15022 whole entry partner): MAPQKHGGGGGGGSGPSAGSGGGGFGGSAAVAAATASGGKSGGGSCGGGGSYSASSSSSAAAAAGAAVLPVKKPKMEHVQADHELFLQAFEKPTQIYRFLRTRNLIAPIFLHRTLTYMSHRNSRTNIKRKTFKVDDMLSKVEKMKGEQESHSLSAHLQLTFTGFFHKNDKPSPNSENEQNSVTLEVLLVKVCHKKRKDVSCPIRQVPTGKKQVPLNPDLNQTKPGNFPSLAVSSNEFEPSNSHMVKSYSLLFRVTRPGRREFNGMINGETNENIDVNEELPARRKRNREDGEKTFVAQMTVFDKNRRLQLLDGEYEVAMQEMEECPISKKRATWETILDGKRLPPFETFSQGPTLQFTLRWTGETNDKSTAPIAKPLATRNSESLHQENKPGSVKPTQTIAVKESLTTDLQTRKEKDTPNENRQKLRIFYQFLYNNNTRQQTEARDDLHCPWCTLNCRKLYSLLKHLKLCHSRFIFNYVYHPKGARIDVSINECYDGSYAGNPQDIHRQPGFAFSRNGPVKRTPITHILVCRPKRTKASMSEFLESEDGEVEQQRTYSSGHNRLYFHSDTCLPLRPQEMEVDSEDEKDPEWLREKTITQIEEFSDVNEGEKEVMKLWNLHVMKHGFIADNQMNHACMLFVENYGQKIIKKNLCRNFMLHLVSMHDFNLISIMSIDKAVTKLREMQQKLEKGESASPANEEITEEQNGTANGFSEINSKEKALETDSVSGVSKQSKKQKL
Sequence of EZH2PRC2 mutant Y641N (Q09028 whole entry partner): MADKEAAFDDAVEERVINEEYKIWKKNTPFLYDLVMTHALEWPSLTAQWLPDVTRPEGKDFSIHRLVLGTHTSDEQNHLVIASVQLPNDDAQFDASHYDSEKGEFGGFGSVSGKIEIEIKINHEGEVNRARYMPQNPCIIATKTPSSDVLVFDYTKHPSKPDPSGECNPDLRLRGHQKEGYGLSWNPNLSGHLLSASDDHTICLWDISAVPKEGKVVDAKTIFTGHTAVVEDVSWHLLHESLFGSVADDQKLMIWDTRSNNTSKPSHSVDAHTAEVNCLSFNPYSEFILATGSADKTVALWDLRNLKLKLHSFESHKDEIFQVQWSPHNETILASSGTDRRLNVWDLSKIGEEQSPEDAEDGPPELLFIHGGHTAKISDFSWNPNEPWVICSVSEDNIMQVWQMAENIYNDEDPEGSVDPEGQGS
Method: Nucleosome Assay Protocol:
A. Compound preparation • 1. Prepare 10 mM stock solutions in 100% DMSO from solid material • 2. Serial dilute 10 mM compound stocks either 2 or 3-fold in 100% DMSO to generate compounds for 11 point dose response
B. Reagent preparation • 1. Prepare 1× assay buffer containing 100 mM Tris pH 8.5, 4 mM DTT and 0.01% Tween-20 • 2. Dilute purified HeLA oligonucleosomes and recombinant histone H1 (New England Biolabs) in assay buffer to 1.67×. • 3. Dilute EZH2 4 protein complex (EZH2, EED, SUZ12, RbAp48) to 3.5× in assay buffer • 4. Prepare 10×^3H SAM solution in assay buffer using 0.94 μCi/well of radioactive SAM (Perkin Elmer) and sufficient non-labeled SAM (Sigma) for 1.5 μM final concentration. • 5. Dilute TCA to 20% in DI water
C. Enzyme reaction • 1. Final reaction conditions are 5 nM EZH2 4-protein complex, 1.5 μM SAM, 25 μg/mL oligonucleosomes, 50 nM rH1 in a 50 μl reaction volume. • 2. Add 1 μl of diluted compound to the assay plate (96-well V-bottom polypropylene plates) or 1 μl of DMSO for control wells. • 3. Add 30 μl of nucleosomes to the assay plate • 4. Add 14 μl of EZH2 4 protein complex to the assay plate • 5. Add 5 μl of ^3H SAM to start the reaction. • 6. Stop the reaction after 60 minutes with the addition of 100 μl of 20% TCA • 7. Transfer 150 μl of quenched reaction into a prepared filterplate (Millipore #MSIPN4B10) • 8. Apply vacuum to the filterplate to filter the reaction mix through the membrane. • 9. Wash the filterplate with 8×200 μl of PBS, blot dry and dry in an oven for 30 minutes • 10. Add 50 μl of microscint-20 scintillation fluid (Perkin Elmer) to each well, wait 30 minutes and count on a liquid scintillation counter.
D. Data analysis • 1. IC50 values were determined by fitting the data to a 4-parameter IC50 equation using proprietary curve fitting software.
Wild type (WT) EZH2% Effect at 20 μM and IC50 values (μM) generated in WT EZH2 or EZH2PRC2 mutant Y641N nucleosome assays are provided in Table 3 below. A blank entry in the table indicates the data was not generated in that assay.

[3] = nucleosome assay, 5 nM EZH2 4-protein complex, 1.5 μM SAM, read-out: WT EZH2 IC50

Sequence of WT EZH2 (EZH2 4 protein complex: EZH2, EED, SUZ12, RbAp48) (Q15910 whole entry): as the sequence (Q15910 whole entry Y641N) above, with N641Y counted along it
Sequence of WT EZH2 (EZH2 4 protein complex: EZH2, EED, SUZ12, RbAp48) (O75530 whole entry partner): as the sequence (O75530 whole entry partner) above
Sequence of WT EZH2 (EZH2 4 protein complex: EZH2, EED, SUZ12, RbAp48) (Q15022 whole entry partner): as the sequence (Q15022 whole entry partner) above
Sequence of WT EZH2 (EZH2 4 protein complex: EZH2, EED, SUZ12, RbAp48) (Q09028 whole entry partner): as the sequence (Q09028 whole entry partner) above

Compound | IC50 [1, 3] [µM] | IC50 [2] [µM] | IC50 [1] [µM]
Cc1cc(C)c(CNC(=O)c2cc(-c3cnc(N(C)C)nc3)cc(-c3ccnn3C)c2C)c(=O)[nH]1 [Example 13, 5-[2-(dimethylamino)pyrimidin-5-yl]-N-[(4,6-dimethyl-2-oxo-1,2-dihydropyridin-3-yl)methyl]-2-methyl-3-(1-methyl-1H-pyrazol-5-yl)benzamide] | 0.038 | 0.62 | –
CNc1ncc(-c2cc(C(=O)NCc3c(C)cc(C)[nH]c3=O)c(C)c(-c3ccnn3C)c2)cn1 [Example 14, N-[(4,6-dimethyl-2-oxo-1,2-dihydropyridin-3-yl)methyl]-2-methyl-5-[2-(methylamino)pyrimidin-5-yl]-3-(1-methyl-1H-pyrazol-5-yl)benzamide] | 0.027 | 0.64 | –
CNc1ncc(-c2cc(C(=O)NCc3c(C)cc(C)[nH]c3=O)c(C)c(-c3c(C)cnn3C)c2)cn1 [Example 15, N-[(4,6-dimethyl-2-oxo-1,2-dihydropyridin-3-yl)methyl]-3-(1,4-dimethyl-1H-pyrazol-5-yl)-2-methyl-5-[2-(methylamino)pyrimidin-5-yl]benzamide] | – | 0.3 | 0.035
Cc1cc(C)c(CNC(=O)c2cc(-c3cnc(N4C[C@@H]5C[C@H]4CO5)nc3)cc(-c3c(C)cnn3C)c2C)c(=O)[nH]1 [Example 22, N-[(4,6-dimethyl-2-oxo-1,2-dihydropyridin-3-yl)methyl]-3-(1,4-dimethyl-1H-pyrazol-5-yl)-2-methyl-5-{2-[(1S,4S)-2-oxa-5-azabicyclo[2.2.1]hept-5-yl]pyrimidin-5-yl}benzamide] | 0.027 | 0.75 | –
Cc1cc(C)c(CNC(=O)c2cc(-c3cnc(N4CC(F)C4)nc3)cc(-c3c(C)cnn3C)c2C)c(=O)[nH]1 [Example 24, N-[(4,6-dimethyl-2-oxo-1,2-dihydropyridin-3-yl)methyl]-3-(1,4-dimethyl-1H-pyrazol-5-yl)-5-[2-(3-fluoroazetidin-1-yl)pyrimidin-5-yl]-2-methylbenzamide] | 0.022 | 0.55 | –
CCCc1cc(C)[nH]c(=O)c1CNC(=O)c1cc(-c2cnn(C)c2)cc(OC(C)C)c1Cl [Example 27, 2-chloro-3-isopropoxy-N-[(6-methyl-2-oxo-4-propyl-1,2-dihydropyridin-3-yl)methyl]-5-(1-methyl-1H-pyrazol-4-yl)benzamide] | 0.29 | 5.15 | –
Cc1cc(C)c(CNC(=O)c2ncnc(N3CCN(c4ncccn4)C[C@@H]3C)c2C)c(=O)[nH]1 [Example 31, (S)—N-((4,6-dimethyl-2-oxo-1,2-dihydropyridin-3-yl)methyl)-5-methyl-6-(2-methyl-4-(pyrimidin-2-yl)piperazin-1-yl)pyrimidine-4-carboxamide] | 0.14 | 1.31 | –
Cc1cc(C)c(CNC(=O)c2nc(Cl)nc(N3CCN(C)C[C@@H]3C)c2C)c(=O)[nH]1 [Example 36, 2-chloro-N-[(4,6-dimethyl-2-oxo-1,2-dihydropyridin-3-yl)methyl]-6-[(2S)-2,4-dimethylpiperazin-1-yl]-5-methylpyrimidine-4-carboxamide] | 2.08 | 13 | –
COCc1cc(C)[nH]c(=O)c1CNC(=O)c1cc(Cl)cc(-c2ccnn2C)c1C [Example 50, 5-chloro-N-{[4-(methoxymeth-yl)-6-methyl-2-oxo-1,2-dihydropyridin-3-yl]methyl}-2-methyl-3-(1-methyl-1H-pyrazol-5-yl)benzamide] | 2.05 | 26.7 | –
COc1cccc(C(=O)NCc2c(C)cc(C)[nH]c2=O)c1C [Example 60, N-[(4,6-dimethyl-2-oxo-1,2-dihydropyridin-3-yl)methyl]-3-methoxy-2-methylbenz-amide] | 3.98 | 50.4 | –
Cc1cc(C)c(CNC(=O)c2ncnc(N3CCN(C)C[C@@H]3C)c2C)c(=O)[nH]1 [Example 67, N-[(4,6-dimethyl-2-oxo-1,2-dihydropyridin-3-yl)methyl]-6-[(2S)-2,4-dimethylpipera-zin-1-yl]-5-methylpyrimi-dine-4-carboxamide] | 4.93 | 23.5 | –
Cc1cc(C)c(CNC(=O)c2nc(N3CCCC3)nc(N3CCC[C@@H]3C)c2C)c(=O)[nH]1 [Example 88, N-[(4,6-dimethyl-2-oxo-1,2-dihydropyridin-3-yl)methyl]-5-methyl-6-[(2S)-2-methylpyrroli-din-1-yl]-2-pyrrolidin-1-ylpyrimidine-4-carboxamide] | 9.82 | 34.8 | –
Cc1cc(C)c(CNC(=O)c2ncnc(N3[C@@H](C)COC[C@@H]3C)c2C)c(=O)[nH]1 [Example 89, 6-[(3S,5S)-3,5-dimethylmorph-olin-4-yl]-N-[(4,6-dimethyl-2-oxo-1,2-dihydropyridin-3-yl)methyl]-5-methylpyrimi-dine-4-carboxamide] | 11 | 82.4 | –

Further compounds by falling IC50 [2], results first:

IC50 [1, 3] [µM] | IC50 [2] [µM] | IC50 [1] [µM] | Compound
1.81 | 19.8 | – | CCOc1cccc(C(=O)NCc2c(C)cc(C)[nH]c2=O)c1C [Example 48, N-[(4,6-dimethyl-2-oxo-1,2-dihydropyridin-3-yl)methyl]-3-ethoxy-2-methyl-benzamide]
1.1 | 7.81 | – | Cc1cc(C)c(CNC(=O)c2nc(Cl)nc(N3CCC[C@@H]3C)c2C)c(=O)[nH]1 [Example 41, 2-chloro-N-[(4,6-dimethyl-2-oxo-1,2-dihydropyridin-3-yl)methyl]-5-methyl-6-[(2S)-2-methylpyrrolidin-1-yl]pyrimidine-4-carboxamide]
1.19 | 6.25 | – | Cc1cc(C)c(CNC(=O)c2nc(Cl)nc(N3CCOC[C@@H]3C)c2C)c(=O)[nH]1 [Example 37, 2-chloro-N-[(4,6-dimethyl-2-oxo-1,2-dihydropyridin-3-yl)methyl]-5-methyl-6-[(3S)-3-methyl-morpholin-4-yl]pyrimidine-4-carboxamide]
0.34 | 5.53 | – | Cc1cc(C)c(CNC(=O)c2cccc(-c3ccnn3C)c2C)c(=O)[nH]1 [Example 2, N-[(4,6-dimethyl-2-oxo-1,2-dihydropyridin-3-yl)methyl]-2-methyl-3-(1-methyl-1H-pyrazol-5-yl)benzamide]
0.084 | 1.33 | – | Cc1cc(C)c(CNC(=O)c2cc(-c3cnc(N)nc3)cc(-c3ccnn3C)c2C)c(=O)[nH]1 [Example 16, 5-(2-aminopyrimidin-5-yl)-N-[(4,6-dimethyl-2-oxo-1,2-dihydropyridin-3-yl)methyl]-2-methyl-3-(1-methyl-1H-pyrazol-5-yl)benzamide]
0.022 | 0.82 | – | CC(=O)N1C2CCC1c1cc(-c3cc(C(=O)NCc4c(C)cc(C)[nH]c4=O)c(C)c(-c4ccnn4C)c3)ccc12 (stereo not shown) [Example 6, 5-[9-acetyl-1,2,3,4-tetrahydro-1,4-epiminonaphthalene-6-yl]-N-[(4,6-dimethyl-2-oxo-1,2-dihydropyridin-3-yl)methyl]-2-methyl-3-(1-methyl-1H-pyrazol-5-yl)benzamide]
0.042 | 0.35 | – | Cc1cc(C)c(CNC(=O)c2cc(-c3ccc4c(c3)CS(=O)(=O)C4)cc(-c3ccnn3C)c2C)c(=O)[nH]1 [Example 35, N-[(4,6-dimethyl-2-oxo-1,2-dihydropyridin-3-yl)methyl]-5-(2,2-dioxido-1,3-dihydro-2-benzothien-5-yl)-2-methyl-3-(1-methyl-1H-pyrazol-5-yl)benzamide]

From patent US20170152239A1, “BENZAMIDE AND HETEROBENZAMIDE COMPOUNDS” (PFIZER INC., priority 2012, published 2017)
